Counter-ions that a name gives are not always drawn.
Tests used:
CDK12/CycK = CDK12/CycK (Homo sapiens, UniProt Q9NYV4); test: Inhibition of CDK12 (ADP-Glo kinase assay); assay type: biochemical; details: 60 nM CDK12/CycK, 30 minutes pre-incubation, 1 μM ATP, 0.5 μM RBER-IRStide substrate, 1 h at 25° C., read-out: CDK12/cyclin K IC50
How it was run: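 ADP-Glo luminescence read after a 1 h, 25 °C reaction with 1 μM ATP and 0.5 μM RBER-IRStide peptide. Enzyme (60 nM) and compound were first pre-incubated 30 min; buffer 50 mM HEPES pH 7.5, 20 mM MgCl2, 3 mM MnCl2, 1% DMSO. IC50 fitted after blank subtraction.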

DM1 fibroblasts = test: Nuclear foci assay; assay type: cell-based; details: Fibroblast; DM1 fibroblasts treated for 24 hours, 11 point dilution 20 μM-19 nM, in situ hybridisation with cy3 labelled CAG10 probe
Procedure: DM1 fibroblasts were treated with compounds in an 11 point dilution series from 20 μM-19 nM for 24 hours. Following treatment, fluorescent in situ hybridisation was performed with a cy3 labelled CAG10 probe, to visualize nuclear foci and cells were analysed on a Molecular Devices plate reader with customised MetaExpress software (Ketley, A. et al. (2014). Hum Mol Genet, 23: 1551-1562). Compounds that reduced nuclear foci in a concentration dependent manner, compared to DMSO treated cells were identified.

Chain of CDK12/CycK (Q9NYV4 whole entry): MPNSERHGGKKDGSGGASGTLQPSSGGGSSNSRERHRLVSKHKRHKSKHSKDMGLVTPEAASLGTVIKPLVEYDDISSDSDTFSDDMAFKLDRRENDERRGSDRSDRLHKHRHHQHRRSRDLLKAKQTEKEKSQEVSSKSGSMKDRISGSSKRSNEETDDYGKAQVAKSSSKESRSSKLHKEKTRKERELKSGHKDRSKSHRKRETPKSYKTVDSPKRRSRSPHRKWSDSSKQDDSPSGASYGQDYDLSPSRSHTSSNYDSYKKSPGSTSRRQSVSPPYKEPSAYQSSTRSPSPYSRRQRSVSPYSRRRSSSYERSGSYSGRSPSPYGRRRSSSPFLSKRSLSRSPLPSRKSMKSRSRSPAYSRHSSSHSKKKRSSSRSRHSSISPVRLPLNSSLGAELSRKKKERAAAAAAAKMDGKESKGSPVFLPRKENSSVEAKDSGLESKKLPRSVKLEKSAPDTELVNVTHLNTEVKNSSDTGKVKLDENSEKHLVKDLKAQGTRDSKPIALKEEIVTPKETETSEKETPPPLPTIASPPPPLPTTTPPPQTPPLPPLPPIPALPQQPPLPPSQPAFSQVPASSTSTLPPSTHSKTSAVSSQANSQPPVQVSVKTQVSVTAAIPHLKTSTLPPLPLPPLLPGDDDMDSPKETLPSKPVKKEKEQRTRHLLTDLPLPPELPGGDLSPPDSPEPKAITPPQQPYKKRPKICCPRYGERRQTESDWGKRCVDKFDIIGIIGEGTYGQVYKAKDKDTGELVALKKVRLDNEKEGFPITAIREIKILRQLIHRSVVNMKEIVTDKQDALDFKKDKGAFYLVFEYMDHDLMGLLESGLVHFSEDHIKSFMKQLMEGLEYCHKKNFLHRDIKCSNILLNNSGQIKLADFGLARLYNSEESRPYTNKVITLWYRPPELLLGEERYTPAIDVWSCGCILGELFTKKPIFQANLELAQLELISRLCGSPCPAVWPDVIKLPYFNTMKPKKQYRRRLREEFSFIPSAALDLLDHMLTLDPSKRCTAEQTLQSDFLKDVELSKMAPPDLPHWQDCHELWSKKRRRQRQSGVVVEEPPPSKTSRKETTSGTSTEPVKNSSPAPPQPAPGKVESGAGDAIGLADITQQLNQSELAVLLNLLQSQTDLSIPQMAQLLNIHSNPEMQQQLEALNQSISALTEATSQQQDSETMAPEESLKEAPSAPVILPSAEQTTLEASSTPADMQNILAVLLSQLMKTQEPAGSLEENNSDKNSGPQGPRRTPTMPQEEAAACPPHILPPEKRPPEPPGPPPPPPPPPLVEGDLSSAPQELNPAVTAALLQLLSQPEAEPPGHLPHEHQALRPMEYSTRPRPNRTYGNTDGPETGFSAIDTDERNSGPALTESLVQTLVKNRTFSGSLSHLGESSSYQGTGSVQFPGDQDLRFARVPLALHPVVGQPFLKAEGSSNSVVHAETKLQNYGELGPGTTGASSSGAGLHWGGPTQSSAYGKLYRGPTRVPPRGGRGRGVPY
Chain of CDK12/CycK (O75909 whole entry partner): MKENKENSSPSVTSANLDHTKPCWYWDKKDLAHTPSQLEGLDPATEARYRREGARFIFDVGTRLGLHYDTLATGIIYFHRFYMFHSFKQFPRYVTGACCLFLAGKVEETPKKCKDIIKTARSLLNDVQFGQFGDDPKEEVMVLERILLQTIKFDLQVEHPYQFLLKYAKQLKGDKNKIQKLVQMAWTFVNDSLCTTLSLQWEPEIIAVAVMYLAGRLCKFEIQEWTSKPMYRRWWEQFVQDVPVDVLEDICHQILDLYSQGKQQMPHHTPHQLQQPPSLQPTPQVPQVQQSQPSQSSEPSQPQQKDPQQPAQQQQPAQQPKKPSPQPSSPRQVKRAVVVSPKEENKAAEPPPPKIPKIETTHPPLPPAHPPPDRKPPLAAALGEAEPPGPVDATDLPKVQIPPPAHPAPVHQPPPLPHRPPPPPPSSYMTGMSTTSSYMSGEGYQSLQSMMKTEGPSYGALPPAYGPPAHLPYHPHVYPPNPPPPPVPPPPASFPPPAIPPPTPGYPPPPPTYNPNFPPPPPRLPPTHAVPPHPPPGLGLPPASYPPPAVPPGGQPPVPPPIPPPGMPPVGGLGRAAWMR

SMILES | IC50 (CDK12/CycK) [µM] | IC50 (DM1 fibroblasts) [µM]
C=CC(=O)Nc1cc(C(=O)N2CCC(c3cc4c(-c5cnn6ncccc56)ccnc4[nH]3)C2)ccc1OC (centres unmarked) [Example 204, N-(2-Methoxy-5-(3-(4-(pyrazolo[1,5-b]pyridazin-3-yl)-1H-pyrrolo[2,3-b]pyridin-2-yl)pyrrolidine-1-carbonyl)phenyl)acrylamide] | < 0.1 | < 1
c1cnn2ncc(-c3ccnc4[nH]ccc34)c2c1 [Example 28, 3-(1H-Pyrrolo[2,3-b]pyridin-4-yl)pyrazolo[1,5-b]pyridazine] | 0.1 to 1 | < 1
C=CC(=O)N1CCC[C@H](C(=O)NCCc2cc3c(-c4cnn5ncccc45)ccnc3[nH]2)C1 [Example 35, (S)-1-acryloyl-N-(2-(4-(pyrazolo[1,5-b]pyridazin-3-yl)-1H-pyrrolo[2,3-b]pyridin-2-yl)ethyl)piperidine-3-carboxamide] | < 0.1 | < 1
C=CC(=O)N1CCOC[C@@H]1C(=O)NCCc1cc2c(-c3cnn4ncccc34)ccnc2[nH]1 [Example 63, (R)-4-Acryloyl-N-(2-(4-(pyrazolo[1,5-b]pyridazin-3-yl)-1H-pyrrolo[2,3-b]pyridin-2-yl)ethyl)morpholine-3-carboxamide] | < 0.1 | < 1
CC(C)=CC(=O)N1CCC[C@H]1C(=O)NCCc1cc2c(-c3cnn4ncccc34)ccnc2[nH]1 [Example 42, (S)-1-(3-Methylbut-2-enoyl)-N-(2-(4-(pyrazolo[1,5-b]pyridazin-3-yl)-1H-pyrrolo[2,3-b]pyridin-2-yl)ethyl)pyrrolidine-2-carboxamide] | 0.1 to 1 | 1 to 10
C=CC(=O)Nc1cccc(C(=O)N2CCC(c3cc4c(-c5cnn6ncccc56)ccnc4[nH]3)C2)c1 (centres unmarked) [Example 141, N-(3-(3-(4-(Pyrazolo[1,5-b]pyridazin-3-yl)-1H-pyrrolo[2,3-b]pyridin-2-yl)pyrrolidine-1-carbonyl)phenyl)acrylamide] | < 0.1 | < 1
c1cc(-c2ccc3cn[nH]c3c2)c2cc[nH]c2n1 [Example 20, 6-(1H-Pyrrolo[2,3-b]pyridin-4-yl)-1H-indazole] | 0.1 to 1 | 10 to 100
C=CC(=O)N1CC(C(=O)NCCc2cc3c(-c4cnn5ncccc45)ccnc3[nH]2)C1 [Example 37, 1-Acryloyl-N-(2-(4-(pyrazolo[1,5-b]pyridazin-3-yl)-1H-pyrrolo[2,3-b]pyridin-2-yl)ethyl)azetidine-3-carboxamide] | < 0.1 | 1 to 10
C=CC(=O)N1CCC[C@H](C(=O)NCCc2cc3c(-c4cnn5ncccc45)c(Cl)cnc3[nH]2)C1 [Example 55, (S)-1-Acryloyl-N-(2-(5-chloro-4-(pyrazolo[1,5-b]pyridazin-3-yl)-1H-pyrrolo[2,3-b]pyridin-2-yl)ethyl)piperidine-3-carboxamide] | < 0.1 | 1 to 10
CC#CC(=O)N1CCC[C@H]1C(=O)NCCc1cc2c(-c3cnn4ncccc34)ccnc2[nH]1 [Example 83, (S)-1-(But-2-ynoyl)-N-(2-(4-(pyrazolo[1,5-b]pyridazin-3-yl)-1H-pyrrolo[2,3-b]pyridin-2-yl)ethyl)pyrrolidine-2-carboxamide] | 0.1 to 1 | 1 to 10
C=CC(=O)N1CCC[C@H]1C(=O)NCCc1cc2c(-c3cnn(C)c3)ccnc2[nH]1 [Example 94, (S)-1-Acryloyl-N-(2-(4-(1-methyl-1H-pyrazol-4-yl)-1H-pyrrolo[2,3-b]pyridin-2-yl)ethyl)pyrrolidine-2-carboxamide] | 0.1 to 1 | 10 to 100
CN(C)C/C=C/C(=O)Nc1ccc(C(=O)N2CCC(c3cc4c(-c5cnn6ncccc56)ccnc4[nH]3)C2)cc1 (centres unmarked) [Example 127, (E)-4-(Dimethylamino)-N-(4-(3-(4-(pyrazolo[1,5-b]pyridazin-3-yl)-1H-pyrrolo[2,3-b]pyridin-2-yl)pyrrolidine-1-carbonyl)phenyl)but-2-enamide Formate Salt] | < 0.1 | < 1
C=CC(=O)N1CCC1C(=O)NCCc1cc2c(-c3cnn4ncccc34)ccnc2[nH]1 (single isomer, unassigned) [Example 39] | < 0.1 | < 1
CN(C)C/C=C/C(=O)N1CCC[C@@H](C(=O)N2CCC(c3cc4c(-c5cnn6ncccc56)ccnc4[nH]3)C2)C1 (stereo partly drawn) [Example 72, (E)-4-(Dimethylamino)-1-((3R)-3-(3-(4-(pyrazolo[1,5-b]pyridazin-3-yl)-1H-pyrrolo[2,3-b]pyridin-2-yl)pyrrolidine-1-carbonyl)piperidin-1-yl)but-2-en-1-one] | 0.1 to 1 | 1 to 10
C=CC(=O)N1CCC[C@H]1C(=O)N1CCN(Cc2cc3c(-c4cnn5ncccc45)ccnc3[nH]2)CC1 [Example 113, (S)-1-(2-(4-((4-(Pyrazolo[1,5-b]pyridazin-3-yl)-1H-pyrrolo[2,3-b]pyridin-2-yl)methyl)piperazine-1-carbonyl)pyrrolidin-1-yl)prop-2-en-1-one] | 1 to 30 | 10 to 100
C=CC(=O)N1CCC[C@H]1C(=O)N1CC[C@@H](c2cc3c(-c4cnn5ncccc45)ccnc3[nH]2)C1 [Example 161, 1-((S)-2-((R)-3-(4-(Pyrazolo[1,5-b]pyridazin-3-yl)-1H-pyrrolo[2,3-b]pyridin-2-yl)pyrrolidine-1-carbonyl)pyrrolidin-1-yl)prop-2-en-1-one] | 0.1 to 1 | < 1
C=CC(=O)Nc1ccc(C(=O)NCc2cc3c(-c4cnn5ncccc45)ccnc3[nH]2)cc1 [Example 57, 4-Acrylamido-N-((4-(pyrazolo[1,5-b]pyridazin-3-yl)-1H-pyrrolo[2,3-b]pyridin-2-yl)methyl)benzamide] | 0.1 to 1 | 1 to 10
C=CC(=O)Nc1ccc(C(=O)N2CCC(c3cc4c(-c5cnn6ncccc56)ccnc4[nH]3)C2)cc1 (centres unmarked) [Example 126, N-(4-(3-(4-(Pyrazolo[1,5-b]pyridazin-3-yl)-1H-pyrrolo[2,3-b]pyridin-2-yl)pyrrolidine-1-carbonyl)phenyl)acrylamide] | < 0.1 | < 1
N#CN1CCC[C@H](C(=O)NCCc2cc3c(-c4cnn5ncccc45)ccnc3[nH]2)C1 [Example 210, (S)-1-cyano-N-(2-(4-(pyrazolo[1,5-b]pyridazin-3-yl)-1H-pyrrolo[2,3-b]pyridin-2-yl)ethyl)piperidine-3-carboxamide] | 0.1 to 1 | 1 to 10
C#CC(=O)Nc1cccc(C(=O)N2CCC(c3cc4c(-c5cnn6ncccc56)ccnc4[nH]3)C2)c1 (centres unmarked) [Example 146, N-(3-(3-(4-(Pyrazolo[1,5-b]pyridazin-3-yl)-1H-pyrrolo[2,3-b]pyridin-2-yl)pyrrolidine-1-carbonyl)phenyl)propiolamide] | < 0.1 | < 1
NCCc1cc2c(-c3cnn4ncccc34)c(Cl)cnc2[nH]1 [Example 101, 2-(5-chloro-4-(pyrazolo[1,5-b]pyridazin-3-yl)-1H-pyrrolo[2,3-b]pyridin-2-yl)ethan-1-amine] | 0.1 to 1 | –
COc1cnn2ncc(-c3ccnc4[nH]ccc34)c2c1 [Example 23, 5-Methoxy-3-(1H-pyrrolo[2,3-b]pyridin-4-yl)pyrazolo[1,5-b]pyridazine] | 1 to 30 | –
c1cnn2ncc(-c3ccnc4[nH]c([C@H]5CCNC5)cc34)c2c1 (single isomer, unassigned) [Example 125, 3-(2-(Pyrrolidin-3-yl)-1H-pyrrolo[2,3-b]pyridin-4-yl)pyrazolo[1,5-b]pyridazine] | 0.1 to 1 | –
C=CC(=O)N1CCOC(C(=O)NCCc2cc3c(-c4cnn5ncccc45)ccnc3[nH]2)C1 (centres unmarked) [Example 60, 4-Acryloyl-N-(2-(4-(pyrazolo[1,5-b]pyridazin-3-yl)-1H-pyrrolo[2,3-b]pyridin-2-yl)ethyl)morpholine-2-carboxamide] | < 0.1 | –
COc1ccc(Cn2cc(-c3ccnc4[nH]ccc34)nn2)cc1 [Example 135, 4-(1-(4-Methoxybenzyl)-1H-1,2,3-triazol-4-yl)-1H-pyrrolo[2,3-b]pyridine] | 1 to 30 | –
C=CC(=O)N1CCC[C@H]1C(=O)N1CC[C@H](c2cc3c(-c4cnn5ncccc45)ccnc3[nH]2)C1 [Example 162, 1-((S)-2-((S)-3-(4-(Pyrazolo[1,5-b]pyridazin-3-yl)-1H-pyrrolo[2,3-b]pyridin-2-yl)pyrrolidine-1-carbonyl)pyrrolidin-1-yl)prop-2-en-1-one] | < 0.1 | –
N#CCC(=O)N1CCC[C@H]1C(=O)NCCc1cc2c(-c3cnn4ncccc34)ccnc2[nH]1 [Example 201, (S)-1-(2-Cyanoacetyl)-N-(2-(4-(pyrazolo[1,5-b]pyridazin-3-yl)-1H-pyrrolo[2,3-b]pyridin-2-yl)ethyl)pyrrolidine-2-carboxamide] | 0.1 to 1 | –
COCCNC(=O)c1cc2c(-c3cnn4ncccc34)ccnc2[nH]1 [Example 3, N-(2-Methoxyethyl)-4-(pyrazolo[1,5-b]pyridazin-3-yl)-1H-pyrrolo[2,3-b]pyridine-2-carboxamide] | 1 to 30 | –
c1cncc(Cn2cc(-c3ccnc4[nH]ccc34)nn2)c1 [Example 136, 4-(1-(Pyridin-3-ylmethyl)-1H-1,2,3-triazol-4-yl)-1H-pyrrolo[2,3-b]pyridine] | 1 to 30 | –
CCC(=O)Nc1ccc(C(=O)NCc2cc3c(-c4cnn5ncccc45)ccnc3[nH]2)cc1 [Example 188, 4-Propionamido-N-((4-(pyrazolo[1,5-b]pyridazin-3-yl)-1H-pyrrolo[2,3-b]pyridin-2-yl)methyl)benzamide] | 1 to 30 | –
